Common to all, as to assay type: physicochemical
Data set [1] in a line: Aqueous vapor stress (high humidity stress, about 85% RH), deliquescence. As to conditions: for deliquescence when stressed at about 85% RH: about 24 h where stated; for deliquescence at elevated RH: elevated relative humidity. On the procedure: Crystalline forms of Compound I were analyzed by at least one of X-ray powder diffraction (XRPD), differential scanning calorimetry (DSC), thermogravimetric analysis (TGA), dynamic vapor sorption (DVS), solution proton nuclear magnetic resonance spectroscopy (^1H NMR), KF titration, and aqueous vapor stress experiments. XRPD patterns of Compound I were collected with a PANalytical X'Pert PRO MPD diffractometer using mostly the following experimental setting: 45 kV, 40 mA, Kα1=1.5406 Å, scan range 2-40° 2θ, step size 0.0167° 2θ. The DSC analysis was conducted on a TA Instruments Q2000 differential scanning calorimeter using 10° C./min heating rate over the 20° C. to 250° C. temperature range or above. The TGA analysis was conducted on a TA Instruments 2950 thermogravimetric analyzer using a 10° C./min heating rate over the 20° C. to 350° C. temperature range. ^1H NMR spectra were acquired with an Agilent DD2-400 spectrometer using DMSO-d6 with tetramethylsilane (TMS). KF analysis was performed using a Mettler Toledo DL39 Karl Fischer titrator with a Stromboli drying oven attachment set at about 110° C. Aqueous vapor stress experiments were conducted by placing a sample in a 85% RH jar for a specified duration.

Data set [2] is described as follows: Kinetic aqueous solubility / solubility in water of salt and co-crystal forms.
The nature of data set [3]: Dynamic vapor sorption (DVS) moisture uptake. As to conditions: for moisture uptake (DVS): at about 90% RH; for hygroscopicity (DVS analysis): classification in words.
Data set [4] is described as follows: Relative stability of solid forms (competitive slurries). As to conditions: for thermodynamic / physical stability of the solid form: statement in words.

Where a name gives a salt, the structure may show the parent alone.

`Cc1noc(C)c1-c1cc(C(O)(c2ccccn2)c2ccccn2)c2nc(C3CC3)[nH]c2c1` [Compound I napsylate Material A, (2-cyclopropyl-6-(3,5-dimethylisoxazol-4-yl)-1H-benzo[d]imidazol-4-yl)di(pyridin-2-yl)methanol]: in data set [1], the “deliquescence when stressed at about 85% RH” value was “does not deliquesce”.

For `Cc1noc(C)c1-c1cc(C(O)(c2ccccn2)c2ccccn2)c2nc(C3CC3)[nH]c2c1` [Compound I mesylate Material A, (2-cyclopropyl-6-(3,5-dimethylisoxazol-4-yl)-1H-benzo[d]imidazol-4-yl)di(pyridin-2-yl)methanol], the “deliquescence at elevated RH” value in data set [1] is “shows evidence of deliquescence”. Besides, the kinetic aqueous solubility entry in data set [2] was “about 5 mg/mL”.

As to `Cc1noc(C)c1-c1cc(C(O)(c2ccccn2)c2ccccn2)c2nc(C3CC3)[nH]c2c1` [Compound I mesylate Material G, (2-cyclopropyl-6-(3,5-dimethylisoxazol-4-yl)-1H-benzo[d]imidazol-4-yl)di(pyridin-2-yl)methanol], in data set [3], the “moisture uptake (DVS)” value is given as “about 25%” and the “hygroscopicity (DVS analysis)” value was “very hygroscopic”.

For `Cc1noc(C)c1-c1cc(C(O)(c2ccccn2)c2ccccn2)c2nc(C3CC3)[nH]c2c1` [Compound I besylate Material A, (2-cyclopropyl-6-(3,5-dimethylisoxazol-4-yl)-1H-benzo[d]imidazol-4-yl)di(pyridin-2-yl)methanol], in data set [1], the “deliquescence when stressed at about 85% RH” value was “does not show any signs of deliquescence”. The kinetic aqueous solubility entry in data set [2] was “about 1 mg/mL”.

`Cc1noc(C)c1-c1cc(C(O)(c2ccccn2)c2ccccn2)c2nc(C3CC3)[nH]c2c1` [Compound I tosylate Form I, (2-cyclopropyl-6-(3,5-dimethylisoxazol-4-yl)-1H-benzo[d]imidazol-4-yl)di(pyridin-2-yl)methanol]: the “deliquescence when stressed at about 85% RH” value in data set [1] is listed as “does not show any evidence of deliquescence”. Also, the kinetic aqueous solubility entry in data set [2] was “about 3 mg/mL”.

`Cc1noc(C)c1-c1cc(C(O)(c2ccccn2)c2ccccn2)c2nc(C3CC3)[nH]c2c1` [Compound I Form I, (2-cyclopropyl-6-(3,5-dimethylisoxazol-4-yl)-1H-benzo[d]imidazol-4-yl)di(pyridin-2-yl)methanol]: in data set [3], the “moisture uptake (DVS)” value is listed as “about 0.4%” and the “hygroscopicity (DVS analysis)” value was “slightly hygroscopic”. For the same compound, the “thermodynamic / physical stability of the solid form” value in data set [4] was “most thermodynamically stable form of Compound I”.

As to `Cc1noc(C)c1-c1cc(C(O)(c2ccccn2)c2ccccn2)c2nc(C3CC3)[nH]c2c1` [Compound I edisylate Material A, (2-cyclopropyl-6-(3,5-dimethylisoxazol-4-yl)-1H-benzo[d]imidazol-4-yl)di(pyridin-2-yl)methanol], the “deliquescence when stressed at about 85% RH” value in data set [1] is “does not show any signs of deliquescence”. For the same compound, the kinetic aqueous solubility entry in data set [2] is listed as “about 1 mg/mL”.

On to `Cc1noc(C)c1-c1cc(C(O)(c2ccccn2)c2ccccn2)c2nc(C3CC3)[nH]c2c1` [Compound I phosphate Form III, (2-cyclopropyl-6-(3,5-dimethylisoxazol-4-yl)-1H-benzo[d]imidazol-4-yl)di(pyridin-2-yl)methanol], for which, in data set [3], the “moisture uptake (DVS)” value is listed as “about 0.7%” and the “hygroscopicity (DVS analysis)” value is “slightly hygroscopic”. In data set [2] (water), the solubility (as a rule, how much of the substance goes into solution per volume) was ~6000 µg/mL.

As for `Cc1noc(C)c1-c1cc(C(O)(c2ccccn2)c2ccccn2)c2nc(C3CC3)[nH]c2c1` [Compound I mesylate Material C, (2-cyclopropyl-6-(3,5-dimethylisoxazol-4-yl)-1H-benzo[d]imidazol-4-yl)di(pyridin-2-yl)methanol], the “deliquescence at elevated RH” value in data set [1] was “a tendency to deliquesce”. Besides, the kinetic aqueous solubility entry in data set [2] was “about 13 mg/mL”.

On to `Cc1noc(C)c1-c1cc(C(O)(c2ccccn2)c2ccccn2)c2nc(C3CC3)[nH]c2c1` [Compound I gentisate Material A, (2-cyclopropyl-6-(3,5-dimethylisoxazol-4-yl)-1H-benzo[d]imidazol-4-yl)di(pyridin-2-yl)methanol], for which, in data set [1], the “deliquescence when stressed at about 85% RH” value is “does not deliquesce”.

As to `Cc1noc(C)c1-c1cc(C(O)(c2ccccn2)c2ccccn2)c2nc(C3CC3)[nH]c2c1` [Compound I phosphate Form II, (2-cyclopropyl-6-(3,5-dimethylisoxazol-4-yl)-1H-benzo[d]imidazol-4-yl)di(pyridin-2-yl)methanol], the “hygroscopicity (DVS analysis)” value in data set [3] was “moderately hygroscopic”. Further, the “relative stability in competitive slurries with Compound I phosphate Form I” value (from here on “relative stability”) in data set [4] (MeOH/IPA, MeOH/EtOAc or MeOH/IPAc, overnight slurry at RT) was “less stable than Compound I phosphate Form I at ambient conditions”.

As for `Cc1noc(C)c1-c1cc(C(O)(c2ccccn2)c2ccccn2)c2nc(C3CC3)[nH]c2c1` [Compound I tartrate Material A, (2-cyclopropyl-6-(3,5-dimethylisoxazol-4-yl)-1H-benzo[d]imidazol-4-yl)di(pyridin-2-yl)methanol], the “deliquescence when stressed at about 85% RH” value in data set [1] is “does not deliquesce”. The kinetic aqueous solubility entry in data set [2] was “about 15 mg/mL”.

`Cc1noc(C)c1-c1cc(C(O)(c2ccccn2)c2ccccn2)c2nc(C3CC3)[nH]c2c1` [Compound I HCl Material B, (2-cyclopropyl-6-(3,5-dimethylisoxazol-4-yl)-1H-benzo[d]imidazol-4-yl)di(pyridin-2-yl)methanol]: in data set [1], the “deliquescence when stressed at about 85% RH” value is reported as “evidence of deliquescence”. Besides, the kinetic aqueous solubility result in data set [2] is given as “about 6 mg/mL”.

Take `Cc1noc(C)c1-c1cc(C(O)(c2ccccn2)c2ccccn2)c2nc(C3CC3)[nH]c2c1` [Compound I phosphate Form V, (2-cyclopropyl-6-(3,5-dimethylisoxazol-4-yl)-1H-benzo[d]imidazol-4-yl)di(pyridin-2-yl)methanol]: the “relative stability” value in data set [4] (MeOH/EtOAc solvent system) is listed as “complete conversion of Compound I phosphate Form V to Compound I phosphate Form I”.

In the case of `Cc1noc(C)c1-c1cc(C(O)(c2ccccn2)c2ccccn2)c2nc(C3CC3)[nH]c2c1` [Compound I sulfate Material A, (2-cyclopropyl-6-(3,5-dimethylisoxazol-4-yl)-1H-benzo[d]imidazol-4-yl)di(pyridin-2-yl)methanol], in data set [1], the “deliquescence when stressed at about 85% RH” value is given as “no evidence of deliquescence”. The kinetic aqueous solubility entry in data set [2] was “about 4 mg/mL”.

`Cc1noc(C)c1-c1cc(C(O)(c2ccccn2)c2ccccn2)c2nc(C3CC3)[nH]c2c1` [Compound I Form II, (2-cyclopropyl-6-(3,5-dimethylisoxazol-4-yl)-1H-benzo[d]imidazol-4-yl)di(pyridin-2-yl)methanol]: the “thermodynamic / physical stability of the solid form” value in data set [4] is “unstable mono-IPA solvate that may convert to Compound I Form I at ambient conditions”.

For the compound `Cc1noc(C)c1-c1cc(C(O)(c2ccccn2)c2ccccn2)c2nc(C3CC3)[nH]c2c1` [Compound I sulfate Material B, (2-cyclopropyl-6-(3,5-dimethylisoxazol-4-yl)-1H-benzo[d]imidazol-4-yl)di(pyridin-2-yl)methanol], the “deliquescence when stressed at about 85% RH” value in data set [1] is reported as “no evidence of deliquescence”. Besides, the kinetic aqueous solubility entry in data set [2] is listed as “about 4 mg/mL”.

As for `Cc1noc(C)c1-c1cc(C(O)(c2ccccn2)c2ccccn2)c2nc(C3CC3)[nH]c2c1` [mixture of Compound I sulfate Material A and Compound I sulf] [(2-cyclopropyl-6-(3,5-dimethylisoxazol-4-yl)-1H-benzo[d]imidazol-4-yl)di(pyridin-2-yl)methanol], the kinetic aqueous solubility entry in data set [2] is reported as “about 4 mg/mL”.

In the case of `Cc1noc(C)c1-c1cc(C(O)(c2ccccn2)c2ccccn2)c2nc(C3CC3)[nH]c2c1` [Compound I phosphate Form IV, (2-cyclopropyl-6-(3,5-dimethylisoxazol-4-yl)-1H-benzo[d]imidazol-4-yl)di(pyridin-2-yl)methanol], the “relative stability” value in data set [4] (MeOH/EtOAc solvent system) is on record as “complete conversion of Compound I phosphate Form IV to Compound I phosphate Form I”.

As to `Cc1noc(C)c1-c1cc(C(O)(c2ccccn2)c2ccccn2)c2nc(C3CC3)[nH]c2c1` [Compound I xinafoate Form I, (2-cyclopropyl-6-(3,5-dimethylisoxazol-4-yl)-1H-benzo[d]imidazol-4-yl)di(pyridin-2-yl)methanol], the “deliquescence when stressed at about 85% RH” value in data set [1] is given as “does not deliquesce”.

(Values after patent US20180141939A1, “SOLID FORMS OF A BET INHIBITOR” (Gilead Sciences, Inc., priority 2016, published 2018).)
